Assay results as given in patent US4505905A, “Cyclobutanone antibacterials” (E. I. Du Pont de Nemours and Company, priority 1982, dated 1985).
Converted amounts (≈) assume the structure as drawn. Read-outs that look alike come from different tables or passages of the source.

Tests used:
[1] = tested on: Bacillus cereus var. mycoides; format: cell-based, Bacillus cereus var. mycoides: ATCC 11778; settings: Table 6; for Effective Combination Concentrations: Units/mL Benzyl Penicillin: concentration of benzyl penicillin combined with the compound; for Effective Combination Concentrations: μg/mL Compound: concentration of compound in combination with benzyl penicillin
[2] = tested on: penicillin-resistant Staphylococcus aureus strain; test: Antibacterial activity in combination with benzyl penicillin, modified microdilution technique; settings: Table 4; for Effective Combination Concentrations: Units/mL Benzyl Penicillin: concentration of benzyl penicillin combined with the compound; for Effective Combination Concentrations: μg/mL Compound: concentration of compound in combination with benzyl penicillin
[3] = tested on: Bacillus cereus var. mycoides; test: microbe, parasite or virus in culture; format: cell-based, Bacillus cereus var. mycoides: ATCC 11778; settings: for MIC: Bacillus cereus, read-out: MIC: μg/mL Compound Alone; for active against B. cereus var. mycoides: Table 6
[4] = tested on: penicillin-resistant Staphylococcus aureus strain; test: Intrinsic antibacterial activity, microdilution method (MIC, compound alone); settings: for MIC: Staphylococcus aureus
[5] = biological target: Pencillinase Type I (a β-lactamase from Bacillus cereus) (Bacillus cereus, UniProt P00809); test: Inhibition of the hydrolysis of penicillin G by Pencillinase Type I; format: biochemical; settings: penicillin G 0.6 mg/mL; enzyme 2.8 μg/mL; inhibitor 75 μg/mL; read-out: percent inhibition of hydrolysis of penicillin G
[6] = tested on: Penicillin Gresistant strain of Staphylococcus Aureus; test: Survival of mice infected with a Penicillin G resistant strain of Staphylococcus Aureus; format: in vivo
Experimental: ^3 In mice infected with a Penicillin Gresistant strain of
Staphylococcus Aureus, the orally administered combination of 32, at 125
mg/kg of body weight, and Penicillin G, at 80 mg/kg of body weight, […]

[7] = read-out: MIC: μg/mL Compound Alone

Sequence of Pencillinase Type I (a β-lactamase from Bacillus cereus) (P00809 28-306): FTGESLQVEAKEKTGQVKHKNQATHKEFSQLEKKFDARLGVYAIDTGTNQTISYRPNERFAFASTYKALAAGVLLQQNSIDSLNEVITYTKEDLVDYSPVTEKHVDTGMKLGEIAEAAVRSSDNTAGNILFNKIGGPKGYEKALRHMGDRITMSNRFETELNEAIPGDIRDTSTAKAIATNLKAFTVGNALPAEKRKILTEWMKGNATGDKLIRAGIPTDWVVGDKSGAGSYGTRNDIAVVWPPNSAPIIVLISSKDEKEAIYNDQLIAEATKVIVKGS

Compound: C[C@H](O)[C@H]1C(=O)[C@@H]2C(C(=O)OC(c3ccccc3)c3ccccc3)=C([S+]([O-])c3ccccc3)C[C@@H]21 (relative stereo) [Compound 35, 3-Phenylsulfinyl-6-(1-hydroxyethyl)-7-oxobicyclo[3.2.0]hept-2-en-2-carboxylic Acid, Diphenylmethyl Ester]
- Effective Combination Concentrations: Units/mL Benzyl Penicillin [1]: 25 Units/mL
- Effective Combination Concentrations: μg/mL Compound [1]: 3.2 µg/mL
- Effective Combination Concentrations: Units/mL Benzyl Penicillin [2]: 10 Units/mL
- Effective Combination Concentrations: μg/mL Compound [2]: 6.3 µg/mL
- MIC [3]: 25 µg/mL (≈ 51.4 µM)
- active against B. cereus var. mycoides [3]: active
- MIC [4, 7]: 50 µg/mL (≈ 103 µM)

Compound: CC(=O)NCCSC1=C(C(=O)OC(c2ccccc2)c2ccccc2)C2C(=O)[C@H]([C@H](C)O)[C@H]2C1 (relative stereo) [Compound 76, 3-(2-Acetamidoethylthio)-(1-hydroxyethyl)-7-oxobicyclo[3.2.0]hept-2-en-2-carboxylic Acid, Diphenylmethyl Ester]
- Effective Combination Concentrations: Units/mL Benzyl Penicillin [2]: 10 Units/mL
- Effective Combination Concentrations: μg/mL Compound [2]: 50 µg/mL
- MIC [4, 7]: > 100 µg/mL

Compound: CC(=O)NCC[S+]([O-])C1=C(C(=O)OC(c2ccccc2)c2ccccc2)[C@H]2C(=O)[C@H]([C@H](C)O)[C@H]2C1 (relative stereo) [Compound 78, 3-(2-Acetamidoethylsulfinyl)-6-(1-hydroxyethyl)-7-oxobicyclo[3.2.0]hept-2-en-2-carboxylic Acid, Diphenylmethyl Ester]
- Effective Combination Concentrations: Units/mL Benzyl Penicillin [2]: 20 Units/mL
- Effective Combination Concentrations: μg/mL Compound [2]: 12.5 µg/mL
- MIC [4, 7]: 50 µg/mL (≈ 101 µM)

Compound: O=C(O)C1=C([S+]([O-])c2ccc([N+](=O)[O-])cc2)CC2CC(=O)C12 (stereo not drawn) [32+]
- Effective Combination Concentrations: Units/mL Benzyl Penicillin [2]: 20 Units/mL
- Effective Combination Concentrations: μg/mL Compound [2]: 12.5 µg/mL
- MIC [4, 7]: > 100 µg/mL

Compound: O=C(OC(c1ccccc1)c1ccccc1)C1=CCC2CC(=O)C12 (stereo not drawn) [Compound 13, 7-Oxobicyclo[3.2.0]hept-2-en-2-carboxylic Acid, Diphenylmethyl Ester]
- Effective Combination Concentrations: Units/mL Benzyl Penicillin [2]: 10 Units/mL
- Effective Combination Concentrations: μg/mL Compound [2]: 12.5 µg/mL
- MIC [4, 7]: > 100 µg/mL

Compound: O=C(OC(c1ccccc1)c1ccccc1)C1=C([S+]([O-])c2ccccc2)CC2CC(=O)C12 (stereo not drawn) [Compound 16, 3-Phenylsulfinyl-7-oxobicyclo[3.2.0]hept-2-en-2-carboxylic Acid, Diphenylmethyl Ester]
- MIC ([4]; read-out: Microdilution MIC): 50 µg/mL (≈ 113 µM)

Compound: O=C(OC(c1ccccc1)c1ccccc1)C1=C(S(=O)(=O)c2ccccc2)CC2CC(=O)C12 (stereo not drawn) [Compound 20, 3-Phenylsulfonyl-7-oxobicyclo[3.2.0]hept-2-en-2-carboxylic Acid, Diphenylmethyl Ester]
- MIC ([4]; read-out: Microdilution MIC): 100 µg/mL (≈ 218 µM)

Compound: CC(=O)NCCSC1=C(C(=O)OC(c2ccccc2)c2ccccc2)C2C(=O)CC2C1 (stereo not drawn) [Compound 24, 3-(2'-Acetamidoethylthio)-7-oxobicyclo-[3.2.0]hept-2-en-2-carboxylic Acid, Diphenylmethyl Ester]
- Effective Combination Concentrations: Units/mL Benzyl Penicillin [2]: 20 Units/mL
- Effective Combination Concentrations: μg/mL Compound [2]: 12.5 µg/mL
- inhibition at 75 µg/mL [5]: 30 to 40%
- MIC [4, 7]: > 100 µg/mL

Compound: CC(=O)NCCSC1=C(C(=O)O)C2C(=O)CC2C1 (stereo not drawn) [Compound 25, 3-(2'-Acetamidoethylthio)-7-oxobicyclo[3.2.0]hept-2-en-2-carboxylic Acid]
- inhibition at 75 µg/mL [5]: 10 to 15%

Compound: CC(=O)NCC[S+]([O-])C1=C(C(=O)OC(c2ccccc2)c2ccccc2)C2C(=O)CC2C1 (stereo not drawn) [Compound 26]
- MIC ([4]; read-out: Microdilution MIC): 100 µg/mL (≈ 221 µM)

Compound: CC(=O)NCCSC1=C(C(=O)OCc2cccc3ccccc23)C2C(=O)CC2C1 (stereo not drawn) [Compound 28, 3-(2'-Acetamidoethylthio)-7-oxobicyclo[3.2.0]hept-2-en-2-carboxylic Acid, 1-Naphthylmethyl Ester]
- Effective Combination Concentrations: Units/mL Benzyl Penicillin [2]: 20 Units/mL
- Effective Combination Concentrations: μg/mL Compound [2]: 25 µg/mL
- MIC [4, 7]: > 100 µg/mL

Compound: CC(=O)NCC[S+]([O-])C1=C(C(=O)OCc2cccc3ccccc23)C2C(=O)CC2C1 (stereo not drawn) [Compound 29, 3-(2'-Acetamidoethylsulfinyl)-7-oxobicyclo[3.2.0]hept-2-en-2-carboxylic Acid, 1-Naphthylmethyl Ester]
- Effective Combination Concentrations: Units/mL Benzyl Penicillin [2]: 20 Units/mL
- Effective Combination Concentrations: μg/mL Compound [2]: 25 µg/mL
- MIC [4, 7]: 100 µg/mL (≈ 235 µM)

Compound: O=C(OC(c1ccccc1)c1ccccc1)C1=C([S+]([O-])c2ccc([N+](=O)[O-])cc2)CC2CC(=O)C12 (stereo not drawn) [Compound 32, 3-(p-Nitrophenylsulfinyl)-7-oxobicyclo[3.2.0]hept-2-en-2-carboxylic Acid, Diphenylmethyl Ester]
- survival rate ([6]; compound by itself at 500 mg/kg): 16.7%
- survival ([6]; oral combination of 32 at 125 mg/kg and Penicillin G at 80 mg/kg): 83.3%
- Effective Combination Concentrations: Units/mL Benzyl Penicillin [1]: 25 Units/mL
- Effective Combination Concentrations: μg/mL Compound [1]: 1.5 µg/mL
- Effective Combination Concentrations: Units/mL Benzyl Penicillin [2]: 5.0 Units/mL
- Effective Combination Concentrations: Units/mL Benzyl Penicillin ([2]; listed as 32*): 10 Units/mL
- Effective Combination Concentrations: μg/mL Compound [2]: 6.3 µg/mL
- MIC [3]: 6.3 µg/mL (≈ 12.9 µM)
- active against B. cereus var. mycoides [3]: active
- MIC [4, 7]: 25 µg/mL (≈ 51.3 µM)

Compound: O=C(OC(c1ccccc1)c1ccccc1)C1=C([S+]([O-])CCNC(=O)C(c2ccccc2)c2ccccc2)CC2CC(=O)C12 (stereo not drawn) [Compound 64]
- Effective Combination Concentrations: Units/mL Benzyl Penicillin [2]: 20 Units/mL
- Effective Combination Concentrations: μg/mL Compound [2]: 3.2 µg/mL
- MIC [4, 7]: > 100 µg/mL

Compound: O=C(OC(c1ccccc1)c1ccccc1)C1=C(S(=O)(=O)c2ccc([N+](=O)[O-])cc2)CC2CC(=O)C12 (stereo not drawn) [Compound 73, 3-(p-Nitrophenylsulfonyl)-7-oxobicyclo[3.2.0]hept-2-en-2-carboxylic Acid, Diphenylmethyl Ester]
- Effective Combination Concentrations: Units/mL Benzyl Penicillin [2]: 1.25 Units/mL
- Effective Combination Concentrations: μg/mL Compound [2]: 25 µg/mL
- MIC [4, 7]: 50 µg/mL (≈ 99.3 µM)

Compound: O=C(OC(c1ccccc1)c1ccccc1)C1=CCC2C1C(=O)C2(Cl)C(O)c1ccccc1 (stereo not drawn) [Compound 75, 6-Chloro-6-(α'-hydroxybenzyl)-7-oxobicyclo[3.2.0]hept-2-en-2-carboxylic Acid, Diphenylmethyl Ester]
- Effective Combination Concentrations: Units/mL Benzyl Penicillin [2]: 10 Units/mL
- Effective Combination Concentrations: μg/mL Compound [2]: 6.3 µg/mL
- MIC [4, 7]: > 100 µg/mL

Compound: COC1(OC)C2C(C(=O)OC(c3ccccc3)c3ccccc3)=C(S(=O)(=O)c3ccccc3)CC2C1C(C)O (stereo not drawn) [Compound 79, 3-Phenylsulfonyl-6-(1-hydroxyethyl)-7,7-dimethoxybicyclo[3.2.0]hept-2-en-2-carboxylic Acid, Diphenylmethyl Ester]
- Effective Combination Concentrations: Units/mL Benzyl Penicillin [2]: 20 Units/mL
- Effective Combination Concentrations: μg/mL Compound [2]: 12.5 µg/mL
- MIC [4, 7]: > 100 µg/mL

Compound: CC1(C)S[C@@H]2[C@H](NC(=O)Cc3ccccc3)C(=O)N2[C@H]1C(=O)O [benzyl penicillin, reference compound]
- survival ([6]; Penicillin G by itself, 80 mg/kg): 33.3%
- Benzyl penicillin MIC ([3]; Table 6 footnote, alone): 100 units/mL
- Minimum Inhibitory Concentration of Benzyl Penicillin ([4]; Table 4 footnote, alone): 100 units/mL
- minimum inhibitory concentration (MIC) of benzyl penicillin ([4]; test isolate, benzyl penicillin alone): > 100 units per mL

Compound: Cc1onc(-c2ccccc2Cl)c1C(=O)N[C@@H]1C(=O)N2[C@@H]1SC(C)(C)[C@@H]2C(=O)O [cloxacillin, reference compound]
- inhibition at 75 µg/mL [5]: 10 to 15%
